Experimental findings from PubChem BioAssay (NCI) are described below.

SMILES strings stand for the structures.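 All cell lines were grown in 96-well plates and treated with compound for 48 hours. At the GI50, growth is halved. At the TGI there is no net growth.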

What all share (assay): growth of human tumour cells (NCI), 48 h
In experiment [1] the test system is SN12C renal.
The subject of experiment [2] is RPMI-8226 leukemia.
Experiment [3] has as its system UACC-62 melanoma.
In experiment [4] the test system is CCRF-CEM leukemia.
Experiment [5] has as its system SW-620 colon.
The subject of experiment [6] is SF-295 CNS.
Experiment [7] concerns NCI-H522 lung.
Experiment [8] deals with SK-OV-3 ovarian.
Experiment [9] deals with NCI/ADR-RES ovarian.
The test system of experiment [10] is PC-3 prostate.

Take `COc1ccc(/C=C/c2nc(=S)[nH][nH]2)cc1`: the TGI in experiment [1], in [2], in experiment [3], in [4], in experiment [5] and in experiment [6] was over 100 µM in each case. In [7], this compound returned a TGI of over 100 µM.
In the case of `NS(=O)(=O)c1ccc(NC(=O)CC(=O)Nc2ccc(S(N)(=O)=O)cc2)cc1`, the TGI in experiment [8], in experiment [1], in experiment [2], in experiment [3], in experiment [4] and in [5] was over 100 µM each time. Also, the TGI in experiment [6] and in [7] was over 100 µM each time.
For the compound `Fc1ccc(F)c(C2SCc3nc4ccccc4n32)c1` (stereo not drawn), the TGI in experiment [8], in experiment [1], in experiment [2], in experiment [3], in [4] and in experiment [5] was over 100 µM throughout. Moreover, the TGI in experiment [6] and in experiment [7] was over 100 µM in each case.
On to `CC(=O)OCC(OC(C)=O)C(OC(C)=O)C(OC(C)=O)C(=O)CNn1c(-c2ccccc2)nc2ccc(Br)cc2c1=O` (stereo not drawn), for which the TGI in experiment [8], in experiment [1], in experiment [2], in experiment [3], in [4] and in experiment [5] was over 100 µM throughout. Besides, the TGI in experiment [6] and in experiment [7] was over 100 µM throughout.
As for `COc1ccccc1CNC(=O)C1c2ccccc2C(=O)N(CC(C)C)C1c1cccs1` (stereo not drawn), the GI50 in [9] is 20600 nM; in [8], 36.9 µM; in experiment [1], 35 µM; in [10], 15.9 µM; in experiment [2], 13.9 µM; in experiment [3] it was 14700 nM. For the same compound, the values for the GI50 in experiment [5] and in experiment [6] were 26.4 µM and 15600 nM, respectively. Besides, the TGI is over 100 µM in [9]; over 100 µM in [8]; over 100 µM in experiment [1]; over 100 µM in experiment [10]; 45.2 µM in experiment [2]; 38.6 µM in [3]. Also, the figures for the TGI in experiment [5] and in [6] were over 100 µM and 67.8 µM, respectively.
For `Cc1c(C2Cc3ccccc3N2C(=O)/C=C\C(=O)O)c2ccccc2n1C` (stereo not drawn), the TGI is 48.5 µM in experiment [8]; 45.6 µM in experiment [1]; 35.8 µM in experiment [3]; over 100 µM in experiment [4]; 41.5 µM in experiment [5]; 50.4 µM in experiment [6]. The TGI in experiment [7] was 46.4 µM.
On to `CCc1ccc(/C(C)=N/NC(N)=S)cc1`, for which the TGI in experiment [8], in experiment [2], in experiment [3] and in [6] was over 100 µM in each case.
In the case of `CCOC(=O)CC1=NC(=Nc2cc(Cl)ccc2Cl)SC1`, the TGI in [8], in [1], in experiment [3], in experiment [4], in [5] and in experiment [6] was over 100 µM each time. This compound also returned a TGI in [7] of over 100 µM.
In the case of `CCc1ccccc1-n1c2nc(=O)n(C)c(=O)c-2nc2ccccc21`, the TGI was over 100 µM in experiment [8]; 26.6 µM in experiment [1]; 58.7 µM in experiment [2]; 5.15 µM in experiment [3]; 39.3 µM in experiment [4]; 27.3 µM in experiment [5]. Moreover, the values for the TGI in [6] and in [7] were 24 µM and 27.3 µM, respectively.
As to `CN(C)c1nc(N(C)C)n2nc(-c3ccccc3[N+](=O)[O-])nc2n1`, the TGI in experiment [8] was over 100 µM; in [1], over 100 µM; in [2], over 100 µM; in experiment [3], over 100 µM; in experiment [4], over 100 µM; in experiment [5], 24.2 µM. Also, the TGI in experiment [6] and in [7] was over 100 µM throughout.
For `CC1=Nc2c([nH]c(=S)[nH]c2=O)NC(c2ccc(Cl)c(Cl)c2)C1` (stereo not drawn), the TGI is 95.6 µM in experiment [8]; 43.9 µM in experiment [1]; over 100 µM in experiment [2]; over 63.7 µM in experiment [3]; over 100 µM in experiment [4]; over 57.7 µM in experiment [5]. The TGI is 46.3 µM in [6] and over 100 µM in experiment [7].
For `O=C1NC(=O)C2(CCC(O)C2)c2cc[n+]([O-])cc21` (stereo not drawn), the TGI in [8], in [1], in experiment [10], in [2], in experiment [3] and in experiment [4] was over 100 µM throughout. In addition, the TGI in experiment [5], in [6] and in [7] was over 100 µM each time.
Regarding `CCOC(=O)C1=C(NC(C)(C)C)OCC1=O`, the TGI in experiment [8], in experiment [1], in experiment [2], in experiment [3], in [5] and in experiment [6] was over 100 µM in each case. In experiment [7], this compound yielded a TGI of over 100 µM.
In the case of `CC(C)CC(CNC(Cc1ccc(Cl)cc1)C(N)=O)NC(=O)C(Cc1cnc[nH]1)NC(=O)CNC(=O)C(NC(=O)C(C)NC(=O)C(Cc1c[nH]c2ccccc12)NC(=O)C(CCC(=O)O)NC(=O)C(N)Cc1ccccc1)C(C)C` (stereo not drawn), the TGI in experiment [8], in [1], in experiment [2], in [3], in experiment [4] and in experiment [5] was over 133 µM in each case. Further, the TGI in experiment [6] was over 133 µM.
With `O=C(O)c1ccc(N=Nc2cc(S(=O)(=O)O)c3cccnc3c2O)cc1`, the TGI in experiment [8], in experiment [1], in experiment [2], in [5] and in experiment [6] was over 100 µM each time.
Take `O=C(CCCNC(=O)OCc1ccccc1)OCc1ccc2c(c1)C(=O)c1ccccc1C2=O`: the TGI in experiment [8] was 79 µM; in [1] it was over 26 µM; in experiment [2], over 100 µM; in experiment [3], over 100 µM; in experiment [4], over 100 µM; in [5], over 100 µM. For the same compound, the TGI in [6] was 83.9 µM; in [7] it was over 100 µM.
For `Cc1[nH]c(=O)nc(CC(O)(c2ccccc2)c2ccccc2)c1-c1ccccc1`, the TGI in experiment [8], in experiment [1], in experiment [3], in [4], in [5] and in experiment [6] was over 100 µM in each case. This compound had a TGI in experiment [7] of over 100 µM.
As for `O=C1OC(c2ccccc2)=N/C1=C\c1c(O)cc(O)cc1O`, the TGI in experiment [8], in experiment [1], in experiment [2], in [3], in [4] and in experiment [5] was over 100 µM in each case. In [7], the TGI was over 100 µM.
As for `COc1ccc(CCNCc2cccc(OC)c2OC)cc1OC`, the TGI in experiment [8], in experiment [1], in experiment [2], in experiment [3], in experiment [4] and in experiment [5] was over 100 µM in each case. For the same compound, the TGI in experiment [6] and in experiment [7] was over 100 µM in each case.
`O=C(/C=C/c1c(O)ccc2ccccc12)c1cccc2ccccc12`: the TGI in experiment [8] was over 100 µM; in experiment [1], over 100 µM; in experiment [2], over 78 µM; in experiment [3], over 100 µM; in experiment [4], over 67.8 µM; in experiment [5], over 51.6 µM. The TGI in experiment [6] and in experiment [7] was over 100 µM in each case.
As for `Cc1ccc2[nH]c(C(=O)NN3C(=O)CSC34CCCC(C)C4)c(-c3ccccc3)c2c1` (stereo not drawn), the GI50 is 21.5 µM in [8]; 16.6 µM in [1]; 14.2 µM in experiment [10]; 13.7 µM in [2]; 13900 nM in [3]; 10.8 µM in experiment [4]. The figures for the GI50 in experiment [5], in experiment [6] and in [7] were 25.6 µM, 17200 nM and 11900 nM, respectively. The TGI was 48.3 µM in experiment [8]; 32.2 µM in experiment [1]; 29.6 µM in experiment [10]; 31.5 µM in experiment [2]; 29.2 µM in experiment [3]; 31.8 µM in [4]. The TGI amounted to 67.1 µM in experiment [5], 33.5 µM in [6] and 25.6 µM in experiment [7].
`CCN(CC)CCCCCOc1cc(O)c2c(=O)cc(-c3ccccc3)oc2c1`: the GI50 is 3060 nM in [9]; 6.95 µM in experiment [8]; 4.78 µM in [1]; 1740 nM in experiment [3]; 3.03 µM in [5]; 2870 nM in experiment [6]. Also, the GI50 in [7] is 2230 nM. The TGI in [9] was 11.6 µM; in experiment [8], 17.8 µM; in experiment [1] it was 17 µM; in experiment [3], 3.15 µM; in experiment [5], 10.3 µM; in [6], 5.69 µM. In addition, the TGI in experiment [7] came to 5.13 µM.
For the compound `OCC(O)COc1c(Cl)ccc(Cl)c1Cl` (stereo not drawn), the TGI in [8], in [1], in experiment [3], in [4], in experiment [5] and in experiment [6] was over 100 µM throughout. This compound showed a TGI in experiment [7] of over 100 µM.
For the compound `O=C(CCc1ccccc1)On1nnc2ccccc2c1=O`, the TGI in experiment [8], in experiment [1], in experiment [3], in experiment [4], in experiment [5] and in experiment [6] was over 100 µM in each case. In [7], this compound came in with a TGI of over 100 µM.
On to `COc1ccc(/C(Cl)=C(\C=O)c2ccc(Br)cc2)cc1OC`, for which the TGI is over 100 µM in experiment [8]; over 100 µM in experiment [1]; over 100 µM in experiment [2]; over 100 µM in [3]; over 100 µM in [5]; 67.9 µM in [6]. Moreover, the TGI in experiment [7] was over 100 µM.
Turning to `CN1CCN(Cc2ccc(NC(=O)c3[nH]ncc3Nc3ncnc4sccc34)cc2)CC1`, the GI50 is 1070 nM in experiment [9]; 0.361 µM in experiment [1]; 0.394 µM in [10]; 0.36 µM in [2]; 915 nM in experiment [3]; 0.315 µM in experiment [5]. In addition, in experiment [6], the GI50 was 325 nM. For the same compound, the TGI was over 100 µM in experiment [9]; over 100 µM in experiment [1]; over 100 µM in experiment [10]; 1.38 µM in experiment [2]; over 100 µM in [3]; over 100 µM in experiment [5]. In experiment [6], the TGI is over 100 µM.
As to `C[C@H]1COC2(c3ccccc3)CCC(=O)N12` (stereo partly drawn), the TGI in experiment [1], in experiment [2], in experiment [3], in [4], in experiment [5] and in experiment [6] was over 100 µM throughout.
Regarding `N#CCC(=O)N/N=C1/C(=O)NC(=O)C(=O)C1c1nc2ccccc2s1` (stereo not drawn), the TGI in experiment [8], in [1], in experiment [2], in experiment [3], in experiment [4] and in [5] was over 100 µM each time. Moreover, the TGI in experiment [6] and in experiment [7] was over 100 µM throughout.
In the case of `COC(=O)C1=C(c2cc(OC)c(OC)c(OC)c2)OC(c2cc(OC)c(OC)c(OC)c2)C1COC(C)=O` (stereo not drawn), the TGI in [8], in experiment [1], in [2], in experiment [3], in [4] and in experiment [5] was over 100 µM in each case. Besides, the TGI in experiment [6] and in [7] was over 100 µM in each case.
As to `Cc1ccc(S(=O)(=O)NC(CCC(=O)Nc2ccccc2)C(=O)Nc2ccccc2)cc1` (stereo not drawn), the GI50 in experiment [9] is 475 nM; in [8] it was 0.47 µM; in experiment [2], 0.309 µM; in [3], 172 nM; in [5], 0.719 µM; in experiment [6], 362 nM. Moreover, the GI50 in experiment [7] is 276 nM. The TGI in experiment [9] was found to be 2.19 µM; in experiment [8] it was 2.39 µM; in experiment [2] it was 1.58 µM; in experiment [3] it was 1.12 µM; in [5], 2.93 µM; in [6], 1.69 µM. The compound further showed a TGI in experiment [7] of 1.14 µM.
